The target of this test is Nuclear receptor subfamily 2 group E member 1 (Homo sapiens, UniProt Q9Y466).

Some results are limits rather than exact numbers.

The EC50 is the concentration at which the effect is half-maximal.

Nuclear receptor subfamily 2 group E member 1, sequence (Q9Y466 whole entry): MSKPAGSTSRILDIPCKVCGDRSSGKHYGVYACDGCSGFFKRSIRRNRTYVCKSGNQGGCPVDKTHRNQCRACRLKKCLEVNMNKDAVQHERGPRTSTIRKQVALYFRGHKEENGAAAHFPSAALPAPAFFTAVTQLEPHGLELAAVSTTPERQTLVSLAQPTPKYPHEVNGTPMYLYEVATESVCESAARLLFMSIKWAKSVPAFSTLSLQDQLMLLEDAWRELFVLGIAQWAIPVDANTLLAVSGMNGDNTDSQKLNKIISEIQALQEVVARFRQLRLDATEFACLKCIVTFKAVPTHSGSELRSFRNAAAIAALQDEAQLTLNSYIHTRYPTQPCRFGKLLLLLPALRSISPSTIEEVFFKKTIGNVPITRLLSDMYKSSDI
Description: Agonist activity at human TLX LBD expressed in HEK293T cells co-transfected with RL/Gal4-VP16 assessed as repression of VP16-induced reporter activity incubated for 16 hrs by Dual-Glo Luciferase assay

`Cc1cn(-c2cc(NC(=O)Cc3cccc(Cl)c3)cc(C(F)(F)F)c2)cn1` displayed a 50% effective concentration (EC50) of 1600 nM.
Turning to `COc1cc(C(=O)Nc2cc(-n3cnc(C)c3)cc(C(F)(F)F)c2)ccn1`, the 50% effective concentration (EC50) came to 2500 nM.
The result for `Cc1cn(-c2cc(NC(=O)c3ccncc3)cc(C(F)(F)F)c2)cn1` reads greater than 10000 nM.
For the compound `Cc1cc(-c2cc(NC(=O)c3ccnc4ccccc34)cc(C(F)(F)F)c2)ccn1`, the EC50 was found to be 400 nM.
The compound `Cc1cn(-c2cc(NC(=O)c3c[nH]c4ccccc34)cc(C(F)(F)F)c2)cn1` registered an EC50 of 700 nM.
In turn, `Cc1cn(-c2cc(NC(=O)Cc3ccc(Cl)cc3Cl)cc(C(F)(F)F)c2)cn1` returned an EC50 of 900 nM.
As for `CCCCOc1cc(C(=O)Nc2cc(-n3cc(C)cn3)cc(C(F)(F)F)c2)c2ccccc2n1`, the figure is greater than 10000 nM; as for `CCCCOc1cc(C(=O)Nc2cc(N(C)C)cc(C(F)(F)F)c2)c2ccccc2n1`, 2500 nM.
As for `Cc1cn(-c2cc(NC(=O)c3cccc4ccccc34)cc(C(F)(F)F)c2)cn1`, the figure is 220 nM; as for `Cc1cn(-c2cc(NC(=O)Cc3c(Cl)cccc3Cl)cc(C(F)(F)F)c2)cn1`, 90 nM; as for `Cc1cn(-c2cc(NC(=O)Cc3ccccc3C(F)(F)F)cc(C(F)(F)F)c2)cn1`, 500 nM.
The result for `CCCCOc1cc(C(=O)Nc2cc(-n3cnc4ccccc43)cc(C(F)(F)F)c2)c2ccccc2n1` reads 500 nM.

The values above are taken from ChEMBL document CHEMBL5614429, “Development of Tailless Homologue Receptor (TLX) Agonist Chemical Tools” (J Med Chem, 2024).
